Measurements: patent publication US9102919B2, “WNT pathway stimulation in reprogramming somatic cells with nuclear reprogramming factors” (Whitehead Institute for Biomedical Research, priority 2007, dated 2015)

Assays:
GSK3 = conditions: cited from earlier work
26 other kinases = conditions: cited from earlier work
[1] = system: MEFs over-expressing Oct4/Sox2/Klf4; test: G418-resistant colony formation in three-factor (Myc[-]) MEFs; format: cell-based, mouse; conditions: 4 μM; three factors in Wnt3a-CM; G418 day 15; scored day 28
Protocol: Cell culture, viral infections, induction of gene expression. Cells were cultured in 15% FBS, DMEM-KO, Penn/Step, Glutamine, Nonessential amino acids, β-ME, and LIF. Mouse embryo fibroblasts (MEFs) with an Oct4-IRES-eGFP construct (Meissner, A., et al., Nature Biotechnology, Direct reprogramming of genetically unmodified fibroblasts into pluripotent stem cells. Published online: 27 Aug. 2007|doi:10.1038/nbt1335) inserted into the endogenous Oct4 locus were infected with lentiviral vectors driving the doxycycline-inducible expression of Oct4, Sox2, Klf4 and c-Myc or only Oct4, Sox2, and Klf4. The vectors were based on the FUGW lentiviral vector backbone (Lois C, et al., Science 2002; 295: 868-872.), modified to include a tet-inducible promoter. Two days following infection cells were split and induced with doxycycline in the presence or absence of Wnt3a conditioned media (used in a 1:1 dilution with normal ES media with 2×LIF). These cells were monitored for GFP expression by flow cytometry at day 13 and again at day 20. […] Following at least one week of G418 selection, resistant colonies were examined and counted. […]
We hypothesized that stimulation of the stimulation of the Wnt pathway using soluble factors could modulate the efficiency of inducing pluripotency in somatic cells. […] GFP expression was analyzed by FACS on day 13 and 20. […]

[2] = system: MEFs overexpressing Oct4/Sox2/Klf4/c-Myc; test: G418-resistant colony formation in four-factor MEFs; format: cell-based, mouse
Protocol: Cell culture, viral infections, induction of gene expression. Cells were cultured in 15% FBS, DMEM-KO, Penn/Step, Glutamine, Nonessential amino acids, β-ME, and LIF. Mouse embryo fibroblasts (MEFs) with an Oct4-IRES-eGFP construct (Meissner, A., et al., Nature Biotechnology, Direct reprogramming of genetically unmodified fibroblasts into pluripotent stem cells. Published online: 27 Aug. 2007|doi:10.1038/nbt1335) inserted into the endogenous Oct4 locus were infected with lentiviral vectors driving the doxycycline-inducible expression of Oct4, Sox2, Klf4 and c-Myc or only Oct4, Sox2, and Klf4. The vectors were based on the FUGW lentiviral vector backbone (Lois C, et al., Science 2002; 295: 868-872.), modified to include a tet-inducible promoter. Two days following infection cells were split and induced with doxycycline in the presence or absence of Wnt3a conditioned media (used in a 1:1 dilution with normal ES media with 2×LIF). These cells were monitored for GFP expression by flow cytometry at day 13 and again at day 20. In parallel, MEFs with doxycycline-inducible Oct4 expressed from the collagen locus and Oct4-IRES-(neo resistance) inserted into the endogenous Oct4 locus were infected with lentiviruses driving the overexpression of either Sox2, Klf4 and c-Myc or Sox2 and Klf4. Again, two days following infection cells were split and induced with doxycycline in the presence or absence of Wnt3a conditioned media. […] Following at least one week of G418 selection, resistant colonies were examined and counted.
Conditioned medium. Wnt 3a conditioned media (CM) was collected from mouse L cells that had been transfected with Wnt3a cDNA (Shibamoto et al. 1998). These cells are available through ATCC(CRL-2647) along with the untransfected parent cell line (CRL-2648) to use for control conditioned medium. […]
We hypothesized that stimulation of the stimulation of the Wnt pathway using soluble factors could modulate the efficiency of inducing pluripotency in somatic cells. […] GFP expression was analyzed by FACS on day 13 and 20. […] Surviving colonies were counted on day 20. […]

CK-II = conditions: at >100 μM; cited from earlier work
PKA = conditions: at >100 μM; cited from earlier work
PKC = conditions: at >100 μM; cited from earlier work
Cdk-1/cyclin B = Cdk-1/cyclin B (Homo sapiens, UniProt P06493); conditions: at >100 μM; cited from earlier work
Chain of Cdk-1/cyclin B (P06493 whole entry, species assumed): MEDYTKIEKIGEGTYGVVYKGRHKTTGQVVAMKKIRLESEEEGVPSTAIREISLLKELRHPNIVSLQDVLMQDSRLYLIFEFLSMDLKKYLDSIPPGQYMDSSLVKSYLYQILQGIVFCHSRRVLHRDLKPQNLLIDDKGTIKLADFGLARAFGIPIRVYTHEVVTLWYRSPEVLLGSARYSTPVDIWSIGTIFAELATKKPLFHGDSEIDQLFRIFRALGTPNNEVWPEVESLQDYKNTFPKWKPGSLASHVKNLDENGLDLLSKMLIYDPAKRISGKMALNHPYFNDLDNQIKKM
Chain of Cdk-1/cyclin B (P14635 whole entry partner, species assumed): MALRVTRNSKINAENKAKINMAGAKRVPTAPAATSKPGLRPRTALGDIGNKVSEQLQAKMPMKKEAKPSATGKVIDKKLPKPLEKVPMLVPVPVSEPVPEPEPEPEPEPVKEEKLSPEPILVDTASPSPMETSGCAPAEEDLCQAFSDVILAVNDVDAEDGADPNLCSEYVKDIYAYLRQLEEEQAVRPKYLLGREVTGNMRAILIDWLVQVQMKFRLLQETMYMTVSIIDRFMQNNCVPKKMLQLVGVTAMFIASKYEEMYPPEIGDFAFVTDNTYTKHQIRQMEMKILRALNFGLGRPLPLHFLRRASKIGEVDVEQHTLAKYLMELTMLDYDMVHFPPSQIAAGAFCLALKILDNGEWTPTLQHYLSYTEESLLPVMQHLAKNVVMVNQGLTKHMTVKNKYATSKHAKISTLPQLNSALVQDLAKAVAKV

histone deacetylase = conditions: cited from earlier work

Question: For `COc1ccc(CNC(=O)Nc2ncc([N+](=O)[O-])s2)cc1` [AR-A014418, N-(4-Methoxybenzyl)-N′-(5-nitro-1,3-thiazol-2-yl)urea], which Ki (GSK3) is on record?
Answer: […]

Question: And the “inhibition of other kinases” value (26 other kinases)?
Answer: does not significantly inhibit

Question: With `O=C1[C@H](Cc2ccc(O)cc2)N2C(=O)CCN(C(=O)NCc3ccccc3)[C@H]2CN1Cc1cccc2ccccc12` [ICG-001] as the molecule, how does the “effect on Wnt3a-CM promoted Myc[-] iPS formation” value [1] read?
Answer: strongly inhibited

Question: And the “effect on number of G418 colonies in c-Myc transduced cells” value ([2]; 4 μM, four factors in Wnt3a-CM, selection day 10, assessed day 20)?
Answer: only a subtle effect

Question: What about the iPS colonies ([2]; 25 μM, four factors (data not shown)) of the same molecule?
Answer: multiple Oct4/Sox2/Klf4/c-Myc iPS colonies were observed

Question: What about the iPS colony numbers ([2]; higher doses than 4 μM, four factors (data not shown)) of the same molecule?
Answer: further reduced

Question: What does the source list for `Cn1sc(=O)n(Cc2ccccc2)c1=O` [TDZD-8, 4-Benzyl-2-methyl-1,2,4-thiadiazolidine-3,5-dione]?
Answer: inhibition (CK-II): does not inhibit; inhibition (PKA): does not inhibit; inhibition (PKC): does not inhibit; inhibition (Cdk-1/cyclin B): does not inhibit

Question: Which “inhibition of histone deacetylase” value (histone deacetylase) does the source give for `CC(/C=C/C(=O)NO)=C\[C@@H](C)C(=O)c1ccc(N(C)C)cc1` [Trichostatin A, [R-(E,E)]-7-[4-(Dimethylamino)phenyl]-N-hydroxy-4,6-dimethyl-7-oxo-2,4-heptadienamide] here?
Answer: inhibits histone deacetylase at nanomolar concentrations
